What is called IC50 is the concentration that gives 50% inhibition.

These results are taken from US9714236B2, “Compounds and methods for inhibiting JAK” (AstraZeneca AB, priority 2015, dated 2017).

Common to all, as to type: biochemical
Assay [1] deals with recombinant JAK1 (amino acids 866-1154) (Homo sapiens (Human), UniProt P23458). The experiment in a line: Enzyme inhibition studies, JAK1 (peptide phosphorylation, Caliper LC3000). The note with it: ATP concentration not given (assayed at ATP Km 55 μM and at 5 mM). Here is the method: (§1) Enzyme inhibition studies were performed using recombinant JAK1 (amino acids 866-1154, Life Technologies, #PV4774, Carlsbad, Calif.), JAK2 (amino acids 831-1132), or JAK3 (amino acids 781-1124) under buffer conditions of 50 mM HEPES pH 7.3, 1 mM DTT, 0.01% Tween® 20, 50 μg/mL BSA, and 10 mM MgCl2. JAK enzyme was expressed as an N-terminal GST fusion in insect cells and purified by glutathione-affinity and size-exclusion chromatographies. […] Phosphorylated and unphosphorylated peptides were separated and quantified by a Caliper LC3000 system (Caliper Life Sciences, MA) for calculating percent inhibition.

Assay [2] deals with recombinant JAK3 (amino acids 781-1124) (Homo sapiens (Human), UniProt P52333). The experiment in a line: Enzyme inhibition studies, JAK3 (peptide phosphorylation, Caliper LC3000). The note with it: ATP concentration of the tabulated values not stated (assayed at ATP Km 3 μM and at 5 mM). The procedure: as §1
Assay [3] concerns the target recombinant JAK2 (amino acids 831-1132) (Homo sapiens (Human), UniProt O60674). The assay can be described thus: Enzyme inhibition studies, JAK2 (peptide phosphorylation, Caliper LC3000). The settings on record: ATP concentration of the tabulated values not stated (assayed at ATP Km 15 μM and at 5 mM). Here is the method:
as §1

Chain of recombinant JAK2 (amino acids 831-1132) (O60674 831-1132): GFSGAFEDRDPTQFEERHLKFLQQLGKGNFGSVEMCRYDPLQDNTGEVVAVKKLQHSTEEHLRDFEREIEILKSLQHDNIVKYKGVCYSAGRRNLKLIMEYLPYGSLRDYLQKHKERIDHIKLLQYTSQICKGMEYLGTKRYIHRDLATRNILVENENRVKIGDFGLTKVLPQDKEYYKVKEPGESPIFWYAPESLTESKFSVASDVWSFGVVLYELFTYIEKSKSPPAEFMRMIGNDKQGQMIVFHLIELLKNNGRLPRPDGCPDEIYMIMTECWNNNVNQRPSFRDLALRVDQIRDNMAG
Chain of recombinant JAK3 (amino acids 781-1124) (P52333 781-1124): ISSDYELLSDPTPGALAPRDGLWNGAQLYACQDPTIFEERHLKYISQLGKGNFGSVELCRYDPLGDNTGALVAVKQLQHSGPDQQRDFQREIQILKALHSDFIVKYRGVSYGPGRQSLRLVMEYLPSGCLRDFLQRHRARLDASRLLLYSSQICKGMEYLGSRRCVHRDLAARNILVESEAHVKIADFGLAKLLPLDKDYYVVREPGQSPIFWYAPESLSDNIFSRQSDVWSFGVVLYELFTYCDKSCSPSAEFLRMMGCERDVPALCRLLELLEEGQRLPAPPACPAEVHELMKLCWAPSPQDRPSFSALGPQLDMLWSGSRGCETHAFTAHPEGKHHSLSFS
Chain of recombinant JAK1 (amino acids 866-1154) (P23458 866-1154): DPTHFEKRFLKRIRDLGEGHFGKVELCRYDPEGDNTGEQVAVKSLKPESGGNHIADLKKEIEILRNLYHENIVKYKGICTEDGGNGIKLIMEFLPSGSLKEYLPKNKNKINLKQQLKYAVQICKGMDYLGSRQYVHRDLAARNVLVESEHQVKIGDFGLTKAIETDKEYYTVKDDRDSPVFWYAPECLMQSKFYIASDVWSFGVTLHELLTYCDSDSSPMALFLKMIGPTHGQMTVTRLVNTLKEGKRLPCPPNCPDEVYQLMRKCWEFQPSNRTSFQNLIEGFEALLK

Take `COc1nn(C)cc1Nc1nccc(-c2c[nH]c3c(NC(=O)[C@@H](C)N4CCN(C)C[C@@H]4C)cccc23)n1` [Example 1, (2R)-2-[(2S)-2,4-dimethylpiperazin-1-yl]-N-(3-{2-[(3-methoxy-1-methyl-1H-pyrazol-4-yl)amino]pyrimidin-4-yl}-1H-indol-7-yl)propanamide]: in assay [1], the IC50 was determined as 0.847 µM.

Turning to `COc1nn(C)cc1Nc1ncc(F)c(-c2c[nH]c3c(NC(=O)[C@@H](C)N4CCN(C)[C@H](C)C4)cccc23)n1` [Example 2, (2R)-2-[(3R)-3,4-dimethylpiperazin-1-yl]-N-(3-{5-fluoro-2-[(3-methoxy-1-methyl-1H-pyrazol-4-yl)amino]pyrimidin-4-yl}-1H-indol-7-yl)propanamide], the IC50 in assay [1] was 0.085 µM; in assay [2] it was more than 30 µM; in assay [3], 12.8 µM.

`COCCN1CCN([C@H](C)C(=O)Nc2cccc3c(-c4nc(Nc5cn(C)nc5OC)ncc4F)c[nH]c23)CC1` [Example 3, (2R)-N-(3-{5-fluoro-2-[(3-methoxy-1-methyl-1H-pyrazol-4-yl)amino]pyrimidin-4-yl}-1H-indol-7-yl)-2-[4-(2-methoxyethyl)piperazin-1-yl]propanamide]: the IC50 in assay [1] was 0.191 µM; in assay [2], more than 30 µM; in assay [3] it was 26.8 µM.

Consider `CCN1CCN([C@H](C)C(=O)Nc2cccc3c(-c4nc(Nc5cn(C)nc5OC)ncc4F)c[nH]c23)CC1` [Example 4, (2R)-2-(4-ethylpiperazin-1-yl)-N-(3-{5-fluoro-2-[(3-methoxy-1-methyl-1H-pyrazol-4-yl)amino]pyrimidin-4-yl}-1H-indol-7-yl)propanamide], for which the IC50 in assay [1] was 0.043 µM; in assay [2] it was more than 30 µM; in assay [3], 6.57 µM.

Take `COc1nn(C)cc1Nc1ncc(F)c(-c2c[nH]c3c(NC(=O)[C@@H](C)N4CCN(C)[C@@H](C)C4)cccc23)n1` [Example 5, (2R)-2-[(3S)-3,4-dimethylpiperazin-1-yl]-N-(3-{5-fluoro-2-[(3-methoxy-1-methyl-1H-pyrazol-4-yl)amino]pyrimidin-4-yl}-1H-indol-7-yl)propanamide]: the IC50 is 0.024 µM in assay [1], more than 30 µM in assay [2] and 10.4 µM in assay [3].

With `COc1nn(C)cc1Nc1ncc(F)c(-c2c[nH]c3c(NC(=O)[C@@H](C)N4CCN(C)C[C@H]4C)cccc23)n1` [Example 6], the figures for the IC50 in assay [1], in assay [2] and in assay [3] were 0.03 µM, more than 30 µM and 9.62 µM, respectively.

For `COc1nn(C)cc1Nc1ncc(F)c(-c2c[nH]c3c(NC(=O)[C@@H](C)N4CCN(C)C[C@@H]4C)cccc23)n1` [Example 7a, (2R)-2-[(2S)-2,4-dimethylpiperazin-1-yl]-N-(3-{5-fluoro-2-[(3-methoxy-1-methyl-1H-pyrazol-4-yl)amino]pyrimidin-4-yl}-1H-indol-7-yl)propanamide], the IC50 was 0.359 µM in assay [1], more than 30 µM in assay [2] and more than 30 µM in assay [3].

With `COc1nn(C)cc1Nc1ncc(F)c(-c2c[nH]c3c(NC(=O)[C@H](C)N4CCN(C)C[C@@H]4C)cccc23)n1` [Example 7b, (2S)-2-[(2S)-2,4-dimethylpiperazin-1-yl]-N-(3-{5-fluoro-2-[(3-methoxy-1-methyl-1H-pyrazol-4-yl)amino]pyrimidin-4-yl}-1H-indol-7-yl)propanamide], the IC50 in assay [1] was 3.6 µM; in assay [2], more than 30 µM; in assay [3], more than 30 µM.

As to `CCOc1nn(C)cc1Nc1ncc(F)c(-c2c[nH]c3c(NC(=O)[C@@H](C)N4CCN(CC)CC4)cccc23)n1` [Example 8, (2R)-N-(3-{2-[(3-ethoxy-1-methyl-1H-pyrazol-4-yl)amino]-5-fluoropyrimidin-4-yl}-1H-indol-7-yl)-2-(4-ethylpiperazin-1-yl)propanamide], the IC50 was 0.11 µM in assay [1], more than 30 µM in assay [2] and 23.6 µM in assay [3].

Regarding `CCOc1nn(C)cc1Nc1ncc(F)c(-c2c[nH]c3c(NC(=O)[C@@H](C)N4CCN(CCOC)CC4)cccc23)n1` [Example 9, (2R)-N-(3-{2-[(3-ethoxy-1-methyl-1H-pyrazol-4-yl)amino]-5-fluoropyrimidin-4-yl}-1H-indol-7-yl)-2-[4-(2-methoxyethyl)piperazin-1-yl]propanamide], the IC50 in assay [1] is 0.426 µM; in assay [2], more than 30 µM; in assay [3], more than 30 µM.

Consider `CCOc1nn(C)cc1Nc1ncc(F)c(-c2c[nH]c3c(NC(=O)[C@@H](C)N4CCN(C)C[C@@H]4C)cccc23)n1` [Example 10a, (2R)-2-[(2S)-2,4-dimethylpiperazin-1-yl]-N-(3-{2-[(3-ethoxy-1-methyl-1H-pyrazol-4-yl)amino]-5-fluoropyrimidin-4-yl}-1H-indol-7-yl)propanamide], for which, in assay [1], the IC50 was determined as 0.846 µM.

Consider `CCOc1nn(C)cc1Nc1ncc(F)c(-c2c[nH]c3c(NC(=O)[C@H](C)N4CCN(C)C[C@@H]4C)cccc23)n1` [Example 10b, (2S)-2-[(2S)-2,4-dimethylpiperazin-1-yl]-N-(3-{2-[(3-ethoxy-1-methyl-1H-pyrazol-4-yl)amino]-5-fluoropyrimidin-4-yl}-1H-indol-7-yl)propanamide], for which, in assay [1], the IC50 worked out at 7.6 µM.

For `CCOc1nn(C)cc1Nc1ncc(F)c(-c2c[nH]c3c(NC(=O)[C@@H](C)N4CCN(C)[C@@H](C)C4)cccc23)n1` [Example 11a, (2R)-2-[(3S)-3,4-dimethylpiperazin-1-yl]-N-(3-{2-[(3-ethoxy-1-methyl-1H-pyrazol-4-yl)amino]-5-fluoropyrimidin-4-yl}-1H-indol-7-yl)propanamide], the figures for the IC50 in assay [1], in assay [2] and in assay [3] were 0.04 µM, more than 30 µM and more than 30 µM, respectively.

For `CCOc1nn(C)cc1Nc1ncc(F)c(-c2c[nH]c3c(NC(=O)[C@@H](C)N4CCN(C)C[C@H]4C)cccc23)n1` [Example 12, (2R)-2-[(2R)-2,4-dimethylpiperazin-1-yl]-N-(3-{2-[(3-ethoxy-1-methyl-1H-pyrazol-4-yl)amino]-5-fluoropyrimidin-4-yl}-1H-indol-7-yl)propanamide], the IC50 in assay [1] was found to be 0.068 µM.

For `COc1nn(C)cc1Nc1nccc(-c2c[nH]c3c(NC(=O)[C@@H](C)N4CCN(C)C[C@H]4C)cccc23)n1` [Example 29, (2R)-2-[(2R)-2,4-dimethylpiperazin-1-yl]-N-(3-{2-[(3-methoxy-1-methyl-1H-pyrazol-4-yl)amino]pyrimidin-4-yl}-1H-indol-7-yl)propanamide], the IC50 in assay [1] was 0.097 µM.

For `CC[C@H](C(=O)Nc1cccc2c(-c3nc(Nc4cn(C)nc4OC)ncc3F)c[nH]c12)N1CCN(C)CC1` [Example 51, (2R)-N-(3-{5-fluoro-2-[(3-methoxy-1-methyl-1H-pyrazol-4-yl)amino]pyrimidin-4-yl}-1H-indol-7-yl)-2-(4-methylpiperazin-1-yl)butanamide], the IC50 in assay [1] is less than 0.003 µM.

As for `CC[C@@H](C(=O)Nc1cccc2c(-c3nc(Nc4cn(C)nc4OC)ncc3F)c[nH]c12)N1CCN(C)CC1` [Example 52, (2S)-N-(3-{5-fluoro-2-[(3-methoxy-1-methyl-1H-pyrazol-4-yl)amino]pyrimidin-4-yl}-1H-indol-7-yl)-2-(4-methylpiperazin-1-yl)butanamide], the IC50 in assay [1] worked out at 0.296 µM.
